Measurements taken from ChEMBL document CHEMBL5058564, “EUbOPEN Chemogenomics Library 2 (Incucyte)” (2022).

What was measured:
Type in all cases: toxicity, cell-based
[1] = tested on: HEK-293T; test: Incucyte cell viability with HEK293T; details: human, 10 µM, compound concentration 10 uM
[2] = tested on: Fibroblast; test: Incucyte cell viability with human fibroblast; details: 10 µM, compound concentration 10 uM
[3] = tested on: U2OS; test: Incucyte cell viability with U2OS; details: human, 10 µM, compound concentration 10 uM
[4] = 6 h, replicate number 1, timepoint 6 hours
[5] = 6 h, replicate number 2, timepoint 6 hours
[6] = 12 h, replicate number 1, timepoint 12 hours
[7] = 12 h, replicate number 2, timepoint 12 hours
[8] = 18 h, replicate number 1, timepoint 18 hours
[9] = 18 h, replicate number 2, timepoint 18 hours
[10] = 24 h, replicate number 1, timepoint 24 hours
[11] = 24 h, replicate number 2, timepoint 24 hours
[12] = 0 h, replicate number 1, timepoint 0 hours
[13] = 0 h, replicate number 2, timepoint 0 hours
Also: unitless GR value; below 1 slowed growth and below 0 cell loss.

Structure (SMILES)	Growth Rate [1, 4]	Growth Rate [1, 6]	Growth Rate [1, 7]	Growth Rate [1, 8]	Growth Rate [1, 9]	Growth Rate [1, 10]	Growth Rate [1, 11]	Growth Rate [2, 4]	Growth Rate [2, 6]	Growth Rate [2, 8]	Growth Rate [2, 10]	Growth Rate [3, 12]	Growth Rate [3, 7]	Growth Rate [3, 8]	Growth Rate [3, 10]	Growth Rate [1, 12]	Growth Rate [1, 13]	Growth Rate [2, 13]	Growth Rate [3, 13]	Growth Rate [3, 4]	further results
CC(=O)c1ccc2c(c1)[C@@H]1C=CC[C@@H]1[C@H](c1cc3c(cc1Br)OCO3)N2	-0.31	0.01	-0.05	-0.14	-0.06	-0.12	-0.02	-0.85	-0.78	-0.76	-0.54	0.33	-0.23	0.03	-0.17	–	–	–	–	–	Growth Rate [1, 5]: -0.36; Growth Rate [2, 5]: -0.8; Growth Rate [2, 7]: -0.47; Growth Rate [2, 9]: -0.23; Growth Rate [2, 11]: -0.18; Growth Rate [3, 5]: 0; Growth Rate [3, 6]: 0.01; Growth Rate [3, 9]: -0.33; Growth Rate [3, 11]: -0.31
O=C1c2c(Br)c(Br)c(Br)c(Br)c2C(=O)N1c1ncc[nH]1	–	0.51	–	0.67	–	0.91	–	–	0.69	0.62	0.65	–	0.89	0.89	0.98	0.24	0.87	0.94	-1	0.46	Growth Rate [1, 5]: 0.45; Growth Rate [2, 12]: -1; Growth Rate [2, 5]: 0.37; Growth Rate [3, 9]: 1
CCCCC/C=C\C/C=C\C/C=C\C/C=C\CCCC(=O)OC(CO)CO [2-ARACHIDONOYLGLYCEROL]	0.94	0.72	0.51	0.64	0.69	0.67	0.75	–	–	–	0.93	–	0.9	–	0.81	–	–	–	0.65	–	Growth Rate [3, 11]: 0.99
N=C(N)NCCC[C@H](NC(=O)COCC(c1ccccc1)c1ccccc1)C(=O)O.O=C(O)C(F)(F)F	1	0.7	–	0.84	–	–	–	0.91	0.66	0.46	0.79	0.29	0.86	0.7	0.8	0.96	0.2	0.91	0.34	0.54	Growth Rate [3, 5]: 0.72; Growth Rate [3, 6]: 0.84; Growth Rate [3, 9]: 0.91; Growth Rate [3, 11]: 1
CN1C[C@H](C(=O)N[C@]2(C)O[C@@]3(O)[C@@H]4CCCN4C(=O)[C@H](Cc4ccccc4)N3C2=O)C[C@@H]2c3cccc4[nH]cc(c34)C[C@H]21.CS(=O)(=O)O [DIHYDROERGOTAMINE MESYLATE]	–	0.96	–	0.98	–	–	–	–	–	–	–	0.01	–	0.95	–	-0.57	-0.38	-0.55	–	0.44	Growth Rate [2, 12]: -0.33
CC(F)(F)CN1CCOc2c(nn(-c3ccccc3Cl)c2-c2ccc(Cl)cc2)C1=O	–	–	0.82	–	–	–	–	-0.37	0.01	-0.21	-0.09	–	–	–	–	–	–	–	-1	–	Growth Rate [2, 5]: 0.94; Growth Rate [2, 7]: 0.22; Growth Rate [2, 9]: 0.75; Growth Rate [2, 11]: 0.06
O=C([O-])[C@H]1O[C@H](OP(=O)([O-])OP(=O)([O-])OC[C@H]2O[C@@H](n3ccc(=O)[nH]c3=O)[C@H](O)[C@@H]2O)[C@H](O)[C@@H](O)[C@@H]1O.[Na+].[Na+].[Na+]	0.43	0.65	–	0.64	–	0.84	0.91	–	–	0.88	0.93	0.32	–	0.9	–	0.81	-0.02	0.57	0.71	0.46	Growth Rate [3, 6]: 0.9
N#Cc1cc2c(OCC(O)CN3CCN(C(c4ccccc4)c4ccccc4)CC3)cccc2[nH]1 (racemic)	–	0.54	0.62	0.32	0.26	0.27	0.29	–	0.52	-0.05	0.24	-0.56	–	–	–	0.77	–	0.94	-1	–	Growth Rate [2, 12]: -0.11; Growth Rate [2, 9]: 0.91
COCCN1CCC(c2cc(CN(C)C(=O)c3cccc(Oc4ccccc4)c3)ccn2)CC1	0.44	0.83	0.93	0.81	0.92	1	0.89	0.77	–	–	–	-0.65	0.87	0.67	0.93	–	0.76	–	-0.76	0.63	Growth Rate [2, 12]: 0.94; Growth Rate [3, 5]: 0.6; Growth Rate [3, 6]: 0.74; Growth Rate [3, 9]: 0.97
